Measured values from patent US6821289B2, “Efficacy and safety of photodynamic therapy by multiple application protocols with photosensitizers that show extended tumor retention” (CeramOptec Industries, Inc., priority 2003, dated 2004).

Legend:
tumor [1] = details: mice; cited from earlier work
[2] = test system: chemically induced rat skin tumor; details: cited from earlier work
[3] = test system: xenografted human pancreatic tumor; details: cited from earlier work
tumor [4] = experiment: PS concentration over time in tumor and normal tissue during repetitive administration of pheophorbide a (FIG. 1); assay type: in vivo
Experimental: FIG. 1 Graphic representation of PS concentration over time in tumor and normal tissue, for example the skin, during repetitive administration of pheophorbide a.
FIG. 1 illustrates preferred intervals between administration of doses of pheophorbide a in cancerous tissue. As is shown in the figure, upon a first administration the concentration of pheophorbide a is initially high and slowly decreases. The concentration in healthy tissue quickly decreases and levels off, where at 24 hours the concentration in healthy tissue is very low and has reached a point where the concentration decreases very slowly. After the first 24 hour interval, the concentration in the tumor is 17 times that in healthy cells. The same effect is observed after the second administration of pheophorbide a. As a result, after a total of four administrations and a total time of 96 hours, the concentration of pheophorbide a in healthy tissues remains very small, and the concentration in the tumor is greater by a factor of 68.

rat pituitary tumor = details: cited from earlier work
pancreas carcinoma = experiment: PDT of a pancreas carcinoma, four intravenous administrations (Example 1); assay type: in vivo; details: 100-200 J/cm^2 at approximately 100 mW/cm^2
Experimental: A formulation of the PS pheophorbide a is administered intravenously 4 times as described above, with doses ranging from approximately 2 to 20 mg of PS per kilogram of body weight, achieving an at least a 50:1 ratio of PS content in the carcinoma to the PS content in the surrounding healthy pancreatic tissue. Light guiding fibres are placed within the tumor under imaging guidance. The tumor is irradiated with an energy density sufficient to necrotize the diseased tissue, preferably 100-200 J/cm^2, at a power density of approximately 100 mW/cm^2.

pancreatic tumor = details: rats, cited from earlier work

Molecule | change in concentration in plasma, single versus double injections (tumor [1]) | relative concentration in skin and tumor tissue, single versus double injections (tumor [1]) | time for which pheophorbide a content remained high in tumor ([2]; chemically induced rat skin tumor, after administration) | time at which pheophorbide a content of normal skin reached a basal value ([2]; rat normal skin, after administration) | basal normal skin content as fraction of tumor pheophorbide a content ([2]; rat, 24 hours after administration) | time at which PS content of normal skin reached a low basal value ([3]; nude mice normal skin) | change of pheophorbide a content of tumor ([3]; xenografted human pancreatic tumor in nude mice, between 4 and 48 hours after administration) | concentration in tumor relative to healthy tissues (tumor [4]; after four administrations, total time 96 hours) | concentration in tumor relative to healthy cells (tumor [4]; after the first 24 hour interval, one administration) | time at which content of normal pituitary gland reached a basal value (rat pituitary tumor; rat normal pituitary gland) | change of pheophorbide a content of tumor (rat pituitary tumor; rat pituitary tumor, during 6 hours after administration) | effect on surrounding tissue upon irradiation (pancreas carcinoma) | time at which pheophorbide a content of normal pancreas reached a low constant value (pancreatic tumor; normal pancreas) | time for which content of pancreatic tumor remained elevated (pancreatic tumor; pancreatic tumor)
Oc1cccc(-c2c3nc(c(-c4cccc(O)c4)c4ccc([nH]4)c(-c4cccc(O)c4)c4nc(c(-c5cccc(O)c5)c5ccc2[nH]5)CC4)C=C3)c1 [Foscan, meta-tetrahydroxyphenylchlorin] | not significantly different | nor was the relative concentration in skin and tumor tissue significantly different |  |  |  |  |  |  |  |  |  |  |  | 
pheophorbide a |  |  | up to 48 hours | ≤ 24 h | one tenth | 24 h | did not decrease | 68 factor | 17 times | 4 h | decreased slowly | remains intact | 24 h | at least 48 hours
